Experimental data published in ChEMBL document CHEMBL1201862, “PubChem BioAssay data set” (2004).
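Cultured in 96-well plates, cells were exposed to test compound for 48 hours across five concentrations. GI50: concentration for 50% inhibition of growth.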 Active and inactive are the calls of the source. Rule as the data show it: active = GI50 up to about 1.1 µM and inactive = higher.

Legend:
Test in all cases: NCI anticancer screen, dose series, 48 h
786-0 = test system: 786-0
A549 = test system: A549
CAKI-1 = test system: CAKI-1
HCT-15 = test system: HCT-15
HOP-92 = test system: HOP-92
HT-29 = test system: HT-29
K562 = test system: K562
MDA-N = test system: MDA-N
MOLT-4 = test system: MOLT-4
NCI-H522 = test system: NCI-H522
NCI/ADR-RES = test system: NCI/ADR-RES
OVCAR-4 = test system: OVCAR-4
RXF 393 = test system: RXF 393
SK-MEL-28 = test system: SK-MEL-28
SK-MEL-5 = test system: SK-MEL-5
SN12C = test system: SN12C
SNB-75 = test system: SNB-75
SR = test system: SR
TK-10 = test system: TK-10
UO-31 = test system: UO-31

Compound	GI50 (786-0)	GI50 (A549)	GI50 (CAKI-1)	GI50 (HCT-15)	GI50 (HOP-92)	GI50 (HT-29)	GI50 (K562)	GI50 (MDA-N)	GI50 (MOLT-4)	GI50 (NCI-H522)	GI50 (NCI/ADR-RES)	GI50 (OVCAR-4)	GI50 (RXF 393)	GI50 (SK-MEL-28)	GI50 (SK-MEL-5)	GI50 (SN12C)	GI50 (SNB-75)	GI50 (SR)	GI50 (TK-10)	GI50 (UO-31)
Cc1ccc(/N=C2N=C(Cl)/C(=C\c3ccccc3)N\2)cc1	> 100 µM (inactive)	> 100 µM (inactive)	> 100 µM (inactive)	2.88 µM	> 100 µM (inactive)	> 100 µM (inactive)	5.52 µM (inactive)	51.9 µM (inactive)	2.33 µM (inactive)	> 100 µM (inactive)	> 38.5 µM (inactive)	65.2 µM (inactive)	> 100 µM (inactive)	> 100 µM (inactive)	48.8 µM (inactive)	> 100 µM (inactive)	> 100 µM (inactive)	0.625 µM (active)	> 100 µM (inactive)	79.1 µM (inactive)
CCCCn1c2c(n(CCCC)c1=S)-c1c(n(CCCC)c(=S)n1CCCC)S[Se][Se]S2	4.62 µM (inactive)	19.7 µM (inactive)	1.62 µM (inactive)	2.94 µM	0.942 µM (active)	7.23 µM (inactive)	1.63 µM (inactive)	8.83 µM (inactive)	2.87 µM (inactive)	0.171 µM (active)	21.1 µM (inactive)	0.815 µM (active)	3.96 µM (inactive)	16.6 µM (inactive)	5.85 µM (inactive)	7.11 µM (inactive)	5.13 µM (inactive)	5.19 µM (inactive)	4.42 µM (inactive)	2.5 µM (inactive)
O=C(/C=C/c1ccccc1)N1CCCCC1	> 100 µM (inactive)	> 100 µM (inactive)	> 100 µM (inactive)	> 100 µM	> 100 µM (inactive)	> 100 µM (inactive)	> 100 µM (inactive)	> 100 µM (inactive)	> 100 µM (inactive)	> 100 µM (inactive)	> 100 µM (inactive)	> 100 µM (inactive)	> 100 µM (inactive)	> 100 µM (inactive)	> 100 µM (inactive)	> 100 µM (inactive)	15.2 µM (inactive)	> 100 µM (inactive)	> 100 µM (inactive)	> 100 µM (inactive)
COc1cccc(N(CN2C(=O)CCC2C(=O)O)C(C)=O)c1 (stereo not given)	> 100 µM (inactive)	> 100 µM (inactive)	> 100 µM (inactive)	> 100 µM	> 100 µM (inactive)	> 100 µM (inactive)	> 100 µM (inactive)	> 100 µM (inactive)	> 100 µM (inactive)	> 100 µM (inactive)	> 100 µM (inactive)	> 100 µM (inactive)	> 100 µM (inactive)	> 100 µM (inactive)	> 100 µM (inactive)	> 100 µM (inactive)	> 100 µM (inactive)	> 100 µM (inactive)	> 100 µM (inactive)	> 100 µM (inactive)
CCc1nc(N)nc(N)c1-c1ccc([N+](=O)[O-])c(NCc2ccccc2)c1	13.9 µM (inactive)	6.17 µM (inactive)	13.7 µM (inactive)	12.3 µM	10.6 µM (inactive)	7.91 µM (inactive)	5.2 µM (inactive)	16 µM (inactive)	7.5 µM (inactive)	15.9 µM (inactive)	10.7 µM (inactive)	15.2 µM (inactive)	14.4 µM (inactive)	16.4 µM (inactive)	6.05 µM (inactive)	20 µM (inactive)	10.1 µM (inactive)	10.3 µM (inactive)	20.2 µM (inactive)	6.18 µM (inactive)
N#Cc1c(N)nc2c3c1NC(=O)C(C(N)=O)C3c1ccccc1O2 (stereo not given)	37.9 µM (inactive)	> 100 µM (inactive)	> 100 µM (inactive)	> 100 µM	12.9 µM (inactive)	> 100 µM (inactive)	> 100 µM (inactive)	> 100 µM (inactive)	> 100 µM (inactive)	22.1 µM (inactive)	> 100 µM (inactive)	95.5 µM (inactive)	75.2 µM (inactive)	> 100 µM (inactive)	> 100 µM (inactive)	> 100 µM (inactive)	54.7 µM (inactive)	62.5 µM (inactive)	> 100 µM (inactive)	> 100 µM (inactive)
